In patent US6946475B1, “Anticancer calcium channel blockers” (University of Virginia Patent Foundation, priority 1999, dated 2005):
pIC50: −log10 of the molar value. Read-outs that look alike come from different tables or passages of the source.

Legend:
[1] = tested on: Jurkat cells; assay: Measurement of cellular proliferation, Jurkat cells; format: cell-based; conditions: for Effect on proliferation of Jurkat cells: FIGS. 10-39
Experimental: (§1) Measurement of cellular proliferation: LNCaP cells at 2.5×10^4/well or PC3 cells at 5×10^4/well, both in a final volume of 100 μl, were plated in triplicate in standard flat bottom 96 well tissue culture plates in the presence of drug or vehicle (DMSO). Unless otherwise indicated, cells were grown for 48 hours at 37° C. in a CO2 incubator. Relative cell growth was determined with the CellTiter 96 aqueous cell proliferation assay (Promega, Madison, Wis.) as described by the manufacturer using an automated plate reader. Results were calculated in a blinded fashion and are means of triplicate determinations.
(§2) For the 48 hour proliferation, cells were cultured with calcium channel antagonists or without calcium channel antagonists. The IC50 values of the calcium channel antagonists were determined.
(§3) Using the measurement cell proliferation assay described hereinabove, the cell lines Jurkat, LNCap (prostate cancer cell), PC-31 (prostate cancer cell), DU145 (prostate cancer cell), MDA-468 (breast cancer cell), MDA-36 (Breast cancer cell), MCF-7 (breast cancer cell), MIA PaCa-2 (pancreatic cancer cell), Hep G2 (liver cancer cell), A549 (non-small cell lung cancer cells), NCI H460 (non-small cell lung cancer cells), HT-29 (colon cancer cell), HCT-116 (colon cancer cell) and SK OV-3 (ovarian cancer cell) were cultured in the presence of TH-1177, TH-1205, TH-1201, TH-2109, TH-2029, TH-2043, TN-2085 and TH-2279.

[2] = tested on: LNCaP prostate cancer cells; assay: Measurement of cellular proliferation, LNCaP cells; on Effect on proliferation of LNCaP cells: test concentration or dose not given here; format: cell-based, human; conditions: for Effect on proliferation of LNCaP cells: FIGS. 10-39
Experimental: as §1, §2, §3

[3] = tested on: PC3 prostate cancer cells; assay: Measurement of cellular proliferation, PC3 cells; format: cell-based, human; conditions: for Effect on proliferation of PC3 cells: 48 hours, FIGS. 10-39; for pIC50: PC-3, 48 hours, read-out: PROLIFERATION IC50 PC-3
Experimental: as §1, §2, §3

[4] = tested on: MDA-468 (breast cancer cell); assay: Measurement of cellular proliferation, MDA-468 cells; on Effect on proliferation of MDA-468 cells: test concentration or dose not given here; format: cell-based; conditions: for Effect on proliferation of MDA-468 cells: 48 hours, FIGS. 10-39; for pIC50: MDA-468, 48 hours
Experimental: as §1, §2, §3

[5] = tested on: MDA-361 cells (breast cancer cell); assay: Measurement of cellular proliferation, MDA-361 cells; format: cell-based; conditions: for Effect on proliferation of MDA-361 cells: 48 hours, FIGS. 10-39
Experimental: as §1, §2, §3

[6] = tested on: DU145 (prostate cancer cell); assay: Measurement of cellular proliferation, DU145 cells; format: cell-based; conditions: DU 145, 48 hours
Experimental: as §1, §2, §3

[7] = tested on: MCF-7 (breast cancer cell); assay: Measurement of cellular proliferation, MCF-7 cells; format: cell-based; conditions: MCF-7, 48 hours
Experimental: as §1, §2, §3

[8] = tested on: MIA PaCa-2 (pancreatic cancer cell); assay: Measurement of cellular proliferation, MIA PaCa-2 cells; format: cell-based; conditions: MIA PaCa-2, 48 hours
Experimental: as §1, §2, §3

[9] = tested on: Hep G2 (liver cancer cell); assay: Measurement of cellular proliferation, Hep G2 cells; format: cell-based; conditions: Hep G2, 48 hours
Experimental: as §1, §2, §3

[10] = tested on: A549 (non-small cell lung cancer cells); assay: Measurement of cellular proliferation, A549 cells; format: cell-based; conditions: A549, 48 hours
Experimental: as §1, §2, §3

[11] = tested on: NCI H460 (non-small cell lung cancer cells); assay: Measurement of cellular proliferation, NCI H460 cells; format: cell-based; conditions: NCI H460, 48 hours; read-out: PROLIFERATION IC50 NCl H460
Experimental: as §1, §2, §3

[12] = tested on: HT-29 (colon cancer cell); assay: Measurement of cellular proliferation, HT-29 cells; format: cell-based; conditions: HT-29, 48 hours
Experimental: as §1, §2, §3

[13] = tested on: HCT-116 (colon cancer cell); assay: Measurement of cellular proliferation, HCT-116 cells; format: cell-based; conditions: HCT 116, 48 hours
Experimental: as §1, §2, §3

[14] = tested on: SK OV-3 (ovarian cancer cell); assay: Measurement of cellular proliferation, SK OV-3 cells; format: cell-based; conditions: SK-OV-3, 48 hours
Experimental: as §1, §2, §3

[15] = Jurkat, 48 hours, read-out: PROLIFERATION IC50 Jurkat
[16] = LNCaP, 48 hours, read-out: PROLIFERATION IC50 LNCaP
[17] = MDA-361, 48 hours, read-out: PROLIFERATION IC50 MDA-361
[18] = Example 7, Jurkat, read-out: cell proliferation test of Example 6 repeated, Jurkat
[19] = Example 7, LNCaP, read-out: cell proliferation test of Example 6 repeated, LNCaP
[20] = Example 7, MDA-361, read-out: cell proliferation test of Example 6 repeated, MDA-361

Structure (SMILES): c1ccc(C(CN2CCCCC2)c2ccccc2)cc1 [MMR-64]
- Effect on proliferation of Jurkat cells ([1]; 48 hours): inhibition
- Effect on proliferation of LNCaP cells ([2]; 48 hours): inhibition
- Effect on proliferation of PC3 cells [3]: inhibition
- Effect on proliferation of MDA-468 cells [4]: inhibition
- Effect on proliferation of MDA-361 cells [5]: inhibition

Structure (SMILES): c1ccc(C(CN2CCC(COC(c3ccccc3)c3ccccc3)CC2)c2ccccc2)cc1 [MMR-70]
- Effect on proliferation of Jurkat cells ([1]; 48 hours): inhibition
- Effect on proliferation of LNCaP cells ([2]; 48 hours): inhibition
- Effect on proliferation of PC3 cells [3]: inhibition
- Effect on proliferation of MDA-468 cells [4]: inhibition
- Effect on proliferation of MDA-361 cells [5]: inhibition

Structure (SMILES): COc1ccc(CCN2CCC(COC(c3ccccc3)c3ccccc3)CC2)cc1 [TH-1087]
- Effect on proliferation of Jurkat cells ([1]; 48 hours): concentration dependent inhibition
- Effect on proliferation of LNCaP cells ([2]; 48 hours): concentration dependent inhibition
- Effect on proliferation of PC3 cells [3]: concentration dependent inhibition
- Effect on proliferation of MDA-468 cells [4]: concentration dependent inhibition
- Effect on proliferation of MDA-361 cells [5]: concentration dependent inhibition

Structure (SMILES): COc1ccc(CCN2CCCC2COC(c2ccccc2)c2ccccc2)cc1 (stereo not drawn) [TH-1113]
- Effect on proliferation of Jurkat cells ([1]; 48 hours): concentration dependent inhibition
- Effect on proliferation of LNCaP cells ([2]; 48 hours): concentration dependent inhibition
- Effect on proliferation of PC3 cells [3]: concentration dependent inhibition
- Effect on proliferation of MDA-468 cells [4]: concentration dependent inhibition
- Effect on proliferation of MDA-361 cells [5]: concentration dependent inhibition

Structure (SMILES): COc1ccc(CCN2CCCC(COC(c3ccccc3)c3ccc(Cl)cc3)C2)cc1 (stereo not drawn) [TH-1205]
- Effect on proliferation of Jurkat cells ([1]; 48 hours): concentration dependent inhibition
- pIC50 [1, 15]: 4.96
- Effect on proliferation of LNCaP cells ([2]; 48 hours): concentration dependent inhibition
- pIC50 [2, 16]: 5.30
- Effect on proliferation of PC3 cells [3]: concentration dependent inhibition
- pIC50 [3]: 4.64
- pIC50 [6]: 4.68
- Effect on proliferation of MDA-468 cells [4]: concentration dependent inhibition
- pIC50 [4]: 4.89
- Effect on proliferation of MDA-361 cells [5]: concentration dependent inhibition
- pIC50 [5, 17]: 4.72
- pIC50 [7]: 4.15
- pIC50 [8]: 4.77
- pIC50 [9]: 4.40
- pIC50 [10]: 4.03
- pIC50 [11]: 4.46
- pIC50 [12]: ~4.00
- pIC50 [13]: 4.52
- pIC50 [14]: 4.48

Structure (SMILES): COc1ccc(CCN2CCCC2COC(c2ccccc2)c2ccc(Cl)cc2)cc1 (stereo not drawn) [TH-1211]
- Effect on proliferation of Jurkat cells ([1]; 48 hours): concentration dependent inhibition
- pIC50 [1, 15]: 5.40
- Effect on proliferation of LNCaP cells ([2]; 48 hours): concentration dependent inhibition
- pIC50 [2, 16]: 5.52
- Effect on proliferation of PC3 cells [3]: concentration dependent inhibition
- pIC50 [3]: 4.77
- pIC50 [6]: 4.89
- Effect on proliferation of MDA-468 cells [4]: concentration dependent inhibition
- pIC50 [4]: 4.96
- Effect on proliferation of MDA-361 cells [5]: concentration dependent inhibition
- pIC50 [5, 17]: 4.85
- pIC50 [7]: 4.62
- pIC50 [8]: 4.77
- pIC50 [9]: 4.70
- pIC50 [10]: 4.39
- pIC50 [11]: 4.89
- pIC50 [12]: ~4.05
- pIC50 [13]: 4.49
- pIC50 [14]: 4.64

Structure (SMILES): COc1ccc(CCN2CCC[C@H]2COC(c2ccc(Cl)cc2)c2ccc(Cl)cc2)cc1 [TH-2019]
- pIC50 [1, 15]: 5.15
- pIC50 [2, 16]: 5.40
- pIC50 [3]: 4.72
- pIC50 [6]: 4.55
- pIC50 [4]: 4.68
- pIC50 [5, 17]: 4.64
- pIC50 [7]: 4.52
- pIC50 [8]: 4.77
- pIC50 [9]: 4.52
- pIC50 [10]: 4.14
- pIC50 [11]: 4.92
- pIC50 [12]: ~4.00
- pIC50 [13]: 4.51
- pIC50 [14]: 4.52

Structure (SMILES): COc1ccc(CCN2CCC(COC(c3ccccc3)c3ccc(Cl)cc3)CC2)cc1 (stereo not drawn) [TH-2029]
- pIC50 [1, 15]: 4.96
- pIC50 [2, 16]: 5.30
- pIC50 [3]: 4.74
- pIC50 [6]: 4.77
- pIC50 [4]: 5.00
- pIC50 [5, 17]: 4.80
- pIC50 [7]: 4.43
- pIC50 [8]: 4.77
- pIC50 [9]: 4.52
- pIC50 [10]: 4.59
- pIC50 [11]: 4.62
- pIC50 [12]: ~4.22
- pIC50 [13]: 4.74
- pIC50 [14]: 4.62

Structure (SMILES): COc1ccc(CCN2CCC(COC(c3ccc(Cl)cc3)c3ccc(Cl)cc3)CC2)cc1 [TH-2043]
- pIC50 [1, 15]: 5.10
- pIC50 [2, 16]: 5.40
- pIC50 [3]: 4.85
- pIC50 [6]: 5.05
- pIC50 [4]: 5.10
- pIC50 [5, 17]: 4.89
- pIC50 [7]: 4.54
- pIC50 [8]: 4.77
- pIC50 [9]: < 4.00
- pIC50 [10]: 4.70
- pIC50 [11]: 5.00
- pIC50 [12]: < 4.00
- pIC50 [13]: 5.00
- pIC50 [14]: 4.64

Structure (SMILES): COc1ccc(CCCN2CCC[C@H]2COC2c3ccccc3-c3ccccc32)cc1 [TH-2085]
- pIC50 [1, 15]: 5.00
- pIC50 [2, 16]: 5.40
- pIC50 [3]: 4.44
- pIC50 [6]: 4.39
- pIC50 [4]: 4.85
- pIC50 [5, 17]: 4.59
- pIC50 [7]: 4.48
- pIC50 [8]: 4.77
- pIC50 [9]: 4.55
- pIC50 [10]: 4.05
- pIC50 [11]: 4.51
- pIC50 [12]: ~4.22
- pIC50 [13]: 4.30
- pIC50 [14]: 4.10

Structure (SMILES): COc1ccccc1CCN1CCC[C@H]1COC(c1ccccc1)c1ccc(Cl)cc1 (stereo partly drawn) [TH-3104]
- pIC50 [1, 18]: 5.42
- pIC50 [2, 19]: 5.62
- pIC50 [5, 20]: 4.89

Structure (SMILES): COc1cccc(CCN2CCC[C@H]2COC(c2ccccc2)c2ccc(Cl)cc2)c1 (stereo partly drawn) [TH-3105]
- pIC50 [1, 18]: 5.30
- pIC50 [2, 19]: 5.49
- pIC50 [5, 20]: 4.54
